Patent US4587245A, “Method of treating neuropsychic disturbances by benzodiazepine derivatives and composition therefor” (Sanofi, priority 1976, dated 1986)
Like-named read-outs stand apart in the source and are kept apart here.

What was measured:
[1] = system: central receptor site of the benzodiazepines; assay: Affinity for the central benzodiazepine receptor site, displacement of 3H-flunitrazepam in vitro; format: binding; conditions: mice and rats
Method: Studies were performed in mice and rats in order to evaluate the respective affinities of CM 6912 and of its metabolites on the central receptor site of the benzodiazepines.

motility of mice = assay: Spontaneous actography; format: in vivo; conditions: oral
Method: (§1) The products according to the invention were subjected to pharmacological tests in mice in order to determine their activity on the central nervous system. We shall indicate below the various tests to which the products were subjected.
(§2) In all cases the products were administered orally.
1. Spontaneous actography
The animals are placed in individual cages through which pass two beams which strike two photoelectric cells.
During their movements, the animals (mice) intercept the beams and cause a recording on the impulse counters.
The variations in the motility of the treated animals are expressed in percentages relative to comparison animals; the sign-indicates a reduction (in percent) of the motility of the subjects.

[2] = system: mice pulling themselves up on a horizontal bar; assay: Traction test; format: in vivo; conditions: Mus musculus, oral, 50% of mice can no longer pull themselves up
Method: as §1, §2
This consists of observing whether the animals (mice) are capable of pulling themselves up on a horizontal bar gripped by the front paws.
The results are expressed as the 50% effective dose (ED50), which is the dose (in mg/kg) for which 50% of the mice can no longer pull themselves up.

equilibration of mice = assay: Rotating rod test: equilibration; format: in vivo; conditions: Mus musculus, oral, 50% of mice fall
Method: as §1, §2
3. Rotating rod test: equilibration
The results are expressed as the 50% effective dose (ED50) which is the dose (in mg/kg) for which 50% of the mice fall during the test.

[3] = system: pentylenetetrazol (cardiazol) convulsions in mice; assay: Anti-convulsive activity in relation to cardiazol; format: in vivo; conditions: Mus musculus, oral, cardiazol 125 mg/kg intraperitoneally, protects 50% of animals, read-out: Anti-convulsive action Cardiazol ED50
Method: as §1, §2
Anti-convulsive activity in relation to cardiazol
When administered intraperitoneally at a dose of 125 mg/kg, pentylenetetrazol (or cardiazol) causes the appearance of lethal convulsions in 100% of the mice treated.
The active products administered orally prior to the cardiazol oppose the appearance of the convulsions and possibly allow the test animals to survive.
The results are expressed as the ED50, that is to say as the dose (in mg/kg) which protects 50% of the animals.

[4] = system: electric shock convulsions in mice; assay: Anti-convulsive activity in relation to electric shock; format: in vivo; conditions: Mus musculus, oral, treated 1 hour beforehand, 12.5 V, 0.5 second, read-out: Anti-convulsive action Electric shock ED50
Method: as §1, §2
Anti-convulsive activity in relation to electric shock
An alternating current of 12.5 V is applied for 0.5 second by means of corneal electrodes to batches of 12 mice treated 1 hour beforehand with the product to be studied. The untreated mice subjected to this electric shock undergo a convulsion of the tonic type.

mice [5] = assay: Anxiolytic activity: 4 plate test; format: in vivo; conditions: oral, 45 minutes after administration, lowest dose with significant effect
Method: as §1, §2
Anxiolytic activity: 4 plate test
The device is a parllelopiped chamber of which the floor consists of 4 metal plates of equal area. The experimenter can create a difference of potential which corresponds to a current of intensity 0.35 mA for a duration of 0.2 second, between each plate. Each time a mouse passes from one plate to the other, it receives an electric shock.
The anxiolytic agents cause an indifference to these electric shock and as a result the treated mice cross from one plate to another more frequently than the comparison mice. 45 minutes after administration of the product to be studied, the mice are placed in the chamber for 1 minute and the number of shocks received is measured and compared with the number of shocks received by the comparison animals. The results are expressed as a percentage increase in the number of shocks received by the treated animals relative to the comparison animals (which amounts to a percentage effect for a given dose), or as a threshold dose (TD) which is the lowest dose which produces a significant effect.

mice [6] = assay: Toxicity; format: in vivo; conditions: oral
Method: as §1, §2
Finally, for certain products, the LDo in mg/kg (for oral administration) has been provided.

rats = assay: Approach-avoidance conflict procedure in Skinner boxes (dissociation of anxiolytic and sedative activities); format: in vivo, male Wistar rats; conditions: intraperitoneal; for ED50: Rattus norvegicus, ip, 0.5 h, 30 minutes before the test
Method: Male Wistar rats are trained in Skinner boxes (Campden) in an approach-avoidance conflict procedure (Davidson and Cook, Psychopharmacologia 1969, 15, 159). The session lasts 30 minutes and consists of a multiple VI 30 sec/FR 3 schedule (sequence: 10 minutes VI+2 minutes FR+10 minutes VI+2 minutes FR+6 minutes VI). During the conflict periods, signalled by a light cue every 3d press delivers simultaneously a pellet and an electric shock. […] Lever presses are authomatically recorded by a microcomputer: non punished responses during the VI schedule and punished responses during the FR periods. A representative benzodiazepine of formula (I) above (R3=ethyl, R4=F; Code No. CM 6912) has been injected by intraperitoneal route 30 minutes before the test.

man = assay: Therapeutic evaluation in man; format: in vivo; conditions: daily dosage of 2 mg
Method: For this purpose, a pharmaceutical composition containing 2 mg of CM 6912 is administered once a day.

[7] = Drug disposition studies after oral administration; format: in vivo, several animal species and man
Description: The originality of the mechanism of action of CM 6912 has been determined by the appearance profile of active metabolites after oral administration.

[8] = oral, several animal species and man
[9] = dose 0.5 mg/kg, minus sign = reduction

## O=C1Nc2ccc(Cl)cc2C(c2ccccc2F)=NC1O (stereo not shown) [3-hydroxy analog]
[1]
  displacement of 3H-flunitrazepam in vitro: very potent

## CCOC(=O)C1N=C(c2ccccc2)c2cc(Cl)ccc2NC1=O (stereo not shown) [CM 4279, reference compound]
Motility of mice; dose 100 mg/kg
  Actography, variation in motility relative to comparison animals: none
[2]
  ED50: 100 mg/kg
Equilibration of mice
  ED50: > 100 mg/kg
[3]
  ED50: 9 mg/kg
[4]
  ED50: > 500 mg/kg
Mice [5]
  Anxiolysis 4 plates threshold dose (TD): 10
Mice [6]
  Toxicity LD.: > 300 mg/kg

## CCOC(=O)C1N=C(c2ccccc2F)c2cc(Cl)ccc2NC1=O (stereo not shown) [CM 6912, 7-chloro-3-ethoxycarbonyl-5-(2-fluorophenyl)-2-oxo-2,3-dihydro-1H-benzodiazepine-1,4]
Motility of mice; dose 33 mg/kg, minus sign = reduction
  Actography, variation in motility relative to comparison animals: -23%
[2]
  ED50: 10 mg/kg
Equilibration of mice
  ED50: 5 mg/kg
[3]
  ED50: 0.6 mg/kg
[4]
  ED50: 12 mg/kg
Mice [5]
  Anxiolysis 4 plates threshold dose (TD): 1
Mice [6]
  Toxicity LD.: > 300 mg/kg
rats; read-out: anxiolytic activity ED50 (increase in punished responding)
  ED50: 1.66 mg/kg
rats; read-out: sedative activity ED50 (decrease in unpunished responding)
  ED50: 16 mg/kg
rats
  dissociation of the anxiolytic and sedative activities: statistically significant
man
  adverse effect in man: without adverse effect
  anxiolytic properties in man: potent anxiolytic properties
[7]; [8]
  biotransformation: biotransformed into the free acid
  stability in the gastro-intestinal tract: stable in the gastro-intestinal tract
[1]
  displacement of 3H-flunitrazepam in vitro: weak displacers

## CCOC(=O)C1N=C(c2ccccc2Cl)c2cc(Cl)ccc2NC1=O (stereo not shown) [CM 7101, 7-chloro-3-ethoxycarbonyl-5-(2-chlorophenyl)-2-oxo-2,3-dihydro-1H-benzodiazepine-1,4]
Motility of mice; [9]
  Actography, variation in motility relative to comparison animals: -58%
[2]
  ED50: 6 mg/kg
Equilibration of mice
  ED50: 6 mg/kg
[3]
  ED50: 0.75 mg/kg
[4]
  ED50: 12 mg/kg
Mice [5]
  Anxiolysis 4 plates threshold dose (TD): 0.5
Mice [6]
  Toxicity LD.: > 300 mg/kg

## COC(=O)C1N=C(c2ccccc2Cl)c2cc(Cl)ccc2NC1=O (stereo not shown) [compound 7442]
Motility of mice; [9]
  Actography, variation in motility relative to comparison animals: -57%
[2]
  ED50: 5 mg/kg
Equilibration of mice
  ED50: 8 mg/kg
[3]
  ED50: 0.4 mg/kg
[4]
  ED50: 32 mg/kg
Mice [5]
  Anxiolysis 4 plates threshold dose (TD): 0.1
Mice [6]
  Toxicity LD.: > 300 mg/kg

## O=C1CN=C(c2ccccc2F)c2cc(Cl)ccc2N1 [de-carbethoxy analog]
[1]
  displacement of 3H-flunitrazepam in vitro: very potent

## O=C(O)C1N=C(c2ccccc2F)c2cc(Cl)ccc2NC1=O (stereo not shown) [free acid]
[7]; metabolite of CM 6912
  activity of metabolite: inactive metabolite
[1]
  displacement of 3H-flunitrazepam in vitro: weak displacers
